How the values were obtained:
HBV = assay: Determination of HBV DNA from the supernatants of HepAD38 cells (anti-HBV activity); assay type: cell-based, hepatitis B virus; settings: Hepatitis B virus, 144 h; HBV DNA in HepAD38 supernatant at day 6; read-out: Cell Activity (EC50)
Method in brief: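 EC50 values were obtained by non-linear regression of HBV DNA copy numbers measured by qPCR against pCH-9/3091 plasmid standards. The DNA came from filtered supernatants collected on day 6. Before that, tetracycline-withdrawn HepAD38 cells had been exposed to serial half-log compound dilutions, with tetracycline-treated cells as the non-producing control.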

HBV core protein = HBV core protein (UniProt P03146); assay type: biochemical; settings: read-out: Assembly Activity (IC50); BODIPY-FL labelled core protein, assembly started with NaCl, read after 6 min
Chain of HBV core protein (P03146 whole entry, looked up, the tested form may be a part): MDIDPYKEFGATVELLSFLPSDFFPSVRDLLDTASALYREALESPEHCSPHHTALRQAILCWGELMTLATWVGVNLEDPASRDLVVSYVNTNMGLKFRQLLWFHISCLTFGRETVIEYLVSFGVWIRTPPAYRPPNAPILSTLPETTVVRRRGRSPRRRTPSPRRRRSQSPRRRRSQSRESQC
Method in brief: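 Compounds tested at 8 concentrations in 0.5-log steps from 100, 31.6 or 10 μM against 1.0–2.0 μM BODIPY-FL-labelled Cys150 core dimers (residues 1–149), 50 mM HEPES pH 7.5. NaCl ([…] final) triggered assembly; quenching read at 6 min, 477/525 nm, with 2.5 M and 0 M NaCl as controls; EC50 by nonlinear fit.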

Row | Compound | EC50 (HBV) [µM] | IC50 (HBV core protein) [µM]
1 | CC(C)(C)CC(=O)Nc1nc2c(s1)CN(C(=O)c1cc3c(Cl)cccc3[nH]1)CC2 [Example 263, N-[5-(4-chloro-1H-indole-2-carbonyl)-4H,5H,6H,7H-[1,3]thiazolo[5,4-c]pyridin-2-yl]-3,3-dimethylbutanamide] | < 1 | 5 to 10
2 | CC(C)(C)NC(=O)Nc1nc2c(s1)CN(C(=O)c1cc3ccccc3[nH]1)CC2 [Example 264, 3-tert-butyl-1-[5-(1H-indole-2-carbonyl)-4H,5H,6H,7H-[1,3]thiazolo[5,4-c]pyridin-2-yl]urea] | < 1 | 5 to 10
3 | CC(C)(C)NC(=O)Nc1nc2c(s1)CN(C(=O)c1cc3c(Cl)cc(F)cc3[nH]1)CC2 [Example 265, 3-tert-butyl-1-[5-(4-chloro-6-fluoro-1H-indole-2-carbonyl)-4H,5H,6H,7H-[1,3]thiazolo[5,4-c]pyridin-2-yl]urea] | < 1 | < 100
4 | CNC(=O)Nc1nc2c(s1)CN(C(=O)c1cc3c(Cl)cc(F)cc3[nH]1)CC2 [Example 266, 1-[5-(4-chloro-6-fluoro-1H-indole-2-carbonyl)-4H,5H,6H,7H-[1,3]thiazolo[5,4-c]pyridin-2-yl]-3-methylurea] | < 1 | < 5
5 | CC1(C)CC1C(=O)Nc1nc2c(s1)CN(C(=O)c1cc3ccccc3[nH]1)CC2 (stereo not drawn) [Example 267, N-[5-(1H-indole-2-carbonyl)-4H,5H,6H,7H-[1,3]thiazolo[5,4-c]pyridin-2-yl]-2,2-dimethylcyclopropane-1-carboxamide] | < 1 | 5 to 10
6 | CC1CC1C(=O)Nc1nc2c(s1)CN(C(=O)c1cc3ccccc3[nH]1)CC2 (stereo not drawn) [Example 268, N-[5-(1H-indole-2-carbonyl)-4H,5H,6H,7H-[1,3]thiazolo[5,4-c]pyridin-2-yl]-2-methylcyclopropane-1-carboxamide] | < 1 | 5 to 10
7 | O=C(c1cc2ccccc2[nH]1)N1CCc2nc(N[C@@H]3CCCC[C@H]3O)sc2C1 [Example 269, (1R,2R)-2-{[5-(1H-indole-2-carbonyl)-4H,5H,6H,7H-[1,3]thiazolo[5,4-c]pyridin-2-yl]amino}cyclohexan-1-ol] | < 1 | < 5
8 | O=C(c1cc2ccccc2[nH]1)N1CCc2nc(NCC3CCCOC3)sc2C1 (stereo not drawn) [Example 270, 5-(1H-indole-2-carbonyl)-N-[(oxan-3-yl)methyl]-4H,5H,6H,7H-[1,3]thiazolo[5,4-c]pyridin-2-amine] | < 1 | < 5
9 | Cc1cc(F)cc2[nH]c(C(=O)N3CCc4nc(NCC5(CO)CC5)sc4C3)cc12 [Example 271, [1-({[5-(6-fluoro-4-methyl-1H-indole-2-carbonyl)-4H,5H,6H,7H-[1,3]thiazolo[5,4-c]pyridin-2-yl]amino}methyl)cyclopropyl]methanol] | < 1 | < 5
10 | CCc1cccc2[nH]c(C(=O)N3CCc4nc(NCC5(CO)CC5)sc4C3)cc12 [Example 272, [1-({[5-(4-ethyl-1H-indole-2-carbonyl)-4H,5H,6H,7H-[1,3]thiazolo[5,4-c]pyridin-2-yl]amino}methyl)cyclopropyl]methanol] | < 1 | < 5
11 | CC(C)(C)OC(=O)N1CCOC(CNc2nc3c(s2)CN(C(=O)c2cc4ccccc4[nH]2)CC3)C1 (stereo not drawn) [Example 273, tert-butyl 2-({[5-(1H-indole-2-carbonyl)-4H,5H,6H,7H-[1,3]thiazolo[5,4-c]pyridin-2-yl]amino}methyl)morpholine-4-carboxylate] | < 1 | 5 to 10
12 | CC1(C(=O)Nc2nc3c(s2)CN(C(=O)c2cc4ccccc4[nH]2)CC3)CC1 [Example 274, N-[5-(1H-indole-2-carbonyl)-4H,5H,6H,7H-[1,3]thiazolo[5,4-c]pyridin-2-yl]-1-methylcyclopropane-1-carboxamide] | < 1 | < 5
13 | CC(C)(C)C(=O)Nc1nc2c(s1)CN(C(=O)c1cc3ccccc3[nH]1)CC2 [Example 275, N-[5-(1H-indole-2-carbonyl)-4H,5H,6H,7H-[1,3]thiazolo[5,4-c]pyridin-2-yl]-2,2-dimethylpropanamide] | < 1 | 5 to 10
14 | Nc1nc2c(s1)CN(C(=O)c1cc3cc(F)c(Cl)cc3[nH]1)CC2 [Example 277, 5-(6-chloro-5-fluoro-1H-indole-2-carbonyl)-4H,5H,6H,7H-[1,3]thiazolo[5,4-c]pyridin-2-amine] | < 1 | < 5
15 | NC(=O)CNc1nc2c(s1)CN(C(=O)c1cc3ccccc3[nH]1)CC2 [Example 278, 2-{[5-(1H-indole-2-carbonyl)-4H,5H,6H,7H-[1,3]thiazolo[5,4-c]pyridin-2-yl]amino}acetamide] | 1 to 10 | < 100
16 | O=C(c1cc2ccccc2[nH]1)N1CCc2nc(NCC(CO)CC3CC3)sc2C1 (stereo not drawn) [Example 282, 2-(cyclopropylmethyl)-3-{[5-(1H-indole-2-carbonyl)-4H,5H,6H,7H-[1,3]thiazolo[5,4-c]pyridin-2-yl]amino}propan-1-ol] | < 1 | 5 to 10
17 | COC(C)(CO)CNc1nc2c(s1)CN(C(=O)c1cc3ccccc3[nH]1)CC2 (stereo not drawn) [Example 283, 3-{[5-(1H-indole-2-carbonyl)-4H,5H,6H,7H-[1,3]thiazolo[5,4-c]pyridin-2-yl]amino}-2-methoxy-2-methylpropan-1-ol] | < 1 | 5 to 10
18 | O=C(c1cc2ccccc2[nH]1)N1CCc2nc(NCC(CO)C3CC3)sc2C1 (stereo not drawn) [Example 284, 2-cyclopropyl-3-{[5-(1H-indole-2-carbonyl)-4H,5H,6H,7H-[1,3]thiazolo[5,4-c]pyridin-2-yl]amino}propan-1-ol] | < 1 | < 5
19 | O=C(c1cc2ccccc2[nH]1)N1CCc2nc(NCCn3cccn3)sc2C1 [Example 285, 5-(1H-indole-2-carbonyl)-N-[2-(1H-pyrazol-1-yl)ethyl]-4H,5H,6H,7H-[1,3]thiazolo[5,4-c]pyridin-2-amine] | < 1 | < 5
20 | O=C(c1cc2ccccc2[nH]1)N1CCc2nc(NCCc3c[nH]cn3)sc2C1 [Example 286, N-[2-(1H-imidazol-4-yl)ethyl]-5-(1H-indole-2-carbonyl)-4H,5H,6H,7H-[1,3]thiazolo[5,4-c]pyridin-2-amine] | < 1 | < 5
21 | O=C(c1cc2ccccc2[nH]1)N1CCc2nc(NC[C@H]3CCCC[C@@H]3O)sc2C1 [Example 288, (1S,2R)-2-({[5-(1H-indole-2-carbonyl)-4H,5H,6H,7H-[1,3]thiazolo[5,4-c]pyridin-2-yl]amino}methyl)cyclohexan-1-ol] | < 1 | 5 to 10
22 | COC(=O)[C@@H]1C[C@H](Nc2nc3c(s2)CN(C(=O)c2cc4ccccc4[nH]2)CC3)CN1 [Example 289, Methyl (2S,4S)-4-{[5-(1H-indole-2-carbonyl)-4H,5H,6H,7H-[1,3]thiazolo[5,4-c]pyridin-2-yl]amino}pyrrolidine-2-carboxylate] | < 100 | < 5
23 | CC(F)(F)c1cc(F)cc2[nH]c(C(=O)N3CCc4nc(N)sc4C3)cc12 [Example 290, 5-[4-(1,1-difluoroethyl)-6-fluoro-1H-indole-2-carbonyl]-4H,5H,6H,7H-[1,3]thiazolo[5,4-c]pyridin-2-amine] | < 1 | < 5
24 | Nc1nc2c(s1)CN(C(=O)c1cc3c(C(F)F)cc(F)cc3[nH]1)CC2 [Example 292, 5-[4-(difluoromethyl)-6-fluoro-1H-indole-2-carbonyl]-4H,5H,6H,7H-[1,3]thiazolo[5,4-c]pyridin-2-amine] | < 1 | < 5
25 | Nc1nc2c(s1)CN(C(=O)c1cc3c(C(F)F)cccc3[nH]1)CC2 [Example 293, 5-[4-(difluoromethyl)-1H-indole-2-carbonyl]-4H,5H,6H,7H-[1,3]thiazolo[5,4-c]pyridin-2-amine] | < 1 | < 5
26 | CN1CCOCC1CNc1nc2c(s1)CN(C(=O)c1cc3ccccc3[nH]1)CC2 (stereo not drawn) [Example 294, 5-(1H-indole-2-carbonyl)-N-[(4-methylmorpholin-3-yl)methyl]-4H,5H,6H,7H-[1,3]thiazolo[5,4-c]pyridin-2-amine] | < 1 | < 5
27 | O=C(c1cc2ccccc2[nH]1)N1CCc2nc(N3CC4COCCN4C3)sc2C1 (stereo not drawn) [Example 295, 2-(2-{hexahydro-1H-imidazo[4,3-c][1,4]oxazin-2-yl}-4H,5H,6H,7H-[1,3]thiazolo[5,4-c]pyridine-5-carbonyl)-1H-indole] | 1 to 10 | < 100
28 | O=C(c1cc2ccccc2[nH]1)N1CCc2nc(NC(CO)C3CCOC3)sc2C1 (stereo not drawn) [Example 297, 2-{[5-(1H-indole-2-carbonyl)-4H,5H,6H,7H-[1,3]thiazolo[5,4-c]pyridin-2-yl]amino}-2-(oxolan-3-yl)ethan-1-ol] | < 1 | < 5
29 | Cc1cc(F)cc2[nH]c(C(=O)N3CCc4nc(NC5(CO)CCC5)sc4C3)cc12 [Example 298, (1-{[5-(6-fluoro-4-methyl-1H-indole-2-carbonyl)-4H,5H,6H,7H-[1,3]thiazolo[5,4-c]pyridin-2-yl]amino}cyclobutyl)methanol] | < 1 | < 5
30 | O=C(c1cc2ccc(Cl)cc2[nH]1)N1CCc2nc(NC3(CO)CCC3)sc2C1 [Example 299, (1-{[5-(6-chloro-1H-indole-2-carbonyl)-4H,5H,6H,7H-[1,3]thiazolo[5,4-c]pyridin-2-yl]amino}cyclobutyl)methanol] | < 1 | < 5
